In US20040192665A1 (priority 2002, published 2004):

Columns and labels:
[1] = tested on: DU-145 human prostate tumor cells; test: DU-145 xenograft tumor growth in nude mice; type: in vivo, nude mice (nu/nu); conditions: experiment 2; I.P. 8 mg/kg once per week; after 5 treatments
Procedure: Cage were cleaned and bedding changed once weekly. Irradiated corn cob bedding was used. Animals were observed daily and clinical signs were noted.
Morbidity and mortality were monitored daily.
The dosage level was determined by exact body weight.
Five mice per treatment group were tested.
Animals were treated once per week for 5 weeks.

[2] = experiment 2, I.P. 8 mg/kg once per week

For COc1cccc2c1C(=O)c1c(O)c3c(c(O)c1C2=O)C[C@@](O)(C(=O)CO)C[C@@H]3O[C@H]1C[C@H](N)[C@H](O)[C@H](C)O1 [doxorubicin], the “tumor volumes less compared to placebo-control tumors” value [1] was 4.4 fold, the animals survived ([2]; after 5 treatments) was 3/6 and the “average group weight in the surviving animals, down by” value ([2]; after the 5th treatment) was 27%.
